Experimental data: patent US20120238488A1, “COMPOUNDS AND METHODS FOR TREATING NEOPLASIA” (priority 2009, published 2012)

Columns and labels:
[1] = system: membrane androgen receptor; assay: Membrane androgen receptor competition assay, DU145 cells; type: binding; conditions: 40 μM compound 30 minutes before 40 μM testosterone-HSA-FITC, FIGS. 3B, 3C
Description: To assess whether compounds of the invention were capable of binding directly to the membrane androgen receptor, a fluorescent-based assay was used to measure the ability of a given compound to preclude binding of a fluorescent mAR ligand (testosterone-HSA-FITC conjugates) to its receptor in LNCaP and DU145 cells (see Kampa, M et al, 2002, Faseb J 16:1429-1431, and PCT/U52007/007913).
The detection of membrane androgen receptors using fluorescent testosterone-serum albumin conjugates was performed as described by Kampa, M et al, 2002, Faseb J 16:1429-1431, with minor modifications. Briefly, LNCaP or DU145 prostate cancer cells were cultured on 0.1% gelatin-coated glass coverslips in RPMI 1640 medium supplemented with 2 mM L-Glutamine, 10% Fetal Bovine Serum and 1% Penicillin/Streptomycin for at least 48 hours until reaching 70% confluency. After a 24 hour serum starvation period, cells were incubated with 40 μM testosterone-HSA-FITC for 1 hour at room temperature. The cells were then washed three times with phosphate buffered saline (PBS) and fixed with 3.7% formaldehyde in PBS for 5 minutes at room temperature. Human serum albumin-FITC was used as a control for background staining. […] Coverslips were mounted on slides by using the Slow Fade/Antifade Reagent (Molecular Probes) and studied under a LEICA DMLB microscope, equipped with the appropriate fluorescence filters and a Leica DC 300F camera. Specimens were analyzed using the Leica FW4000 computer program.
To determine the capacity of a given compound to preclude binding of fluorescent testosterone-HSA conjugates (TAC) to the membrane androgen receptor, starved LNCaP or DU145 cells on coverslips prepared as described above were pre-treated with 40 μM of the indicated compound for 30 minutes prior to the addition of testosterone-HSA-FITC. […] Specimens were prepared and analyzed as described above. Compounds binding to the membrane androgen receptor preclude binding of fluorescent testosterone-HSA conjugates to their target and abolish membrane-specific fluorescence.

[2] = system: DU145 prostate cancer cells; assay: MTT assay, combination with paclitaxel; conditions: DU145, FIG. 1E
Procedure: Cell proliferation/viability was assessed by the MTT [3-(4,5-dimethylthiazol-2-yl)-2,5-diphenyltetrazolium bromide] assay, which is commercially available (Sigma, St. Louis, Mo.). Cells were cultured in 96-well plates for twenty-four hours (7-10.000 cells/well) and incubated with various concentrations of the compounds of the invention in serum-containing medium (or left untreated) for seventy-two hours. At the end of incubation, the medium was aspirated and MTT dissolved in RPMI 1640 w/o phenol red was added to each well to a final concentration of 0.25 mg/ml. After four hours incubation in the dark (37° C., 5% CO2) the supernatant was discarded. The converted dye (blue formazan crystals) was solubilized by adding 200 μl dimethylsulfoxide to each well. Absorbance was measured at 550 nm with reference at 655 nm using a spectrophotometer with the respective filters. All assays were performed in triplicate.

T470 (Breast) = assay: SRB assay, T470; type: cell-based, human; conditions: 48 h
Procedure: (§1) SRB assays were performed according to standard National Cancer Institute Guidelines. Briefly, human tumor cells from different cancer panels were seeded into 96 well plates in 100 μL (plating densities ranging from 5-40,000 cells/well depending on the doubling time of individual cell lines) in serum-containing media for twenty-four hours prior to the addition of the compounds to be assayed. After 24 hours, one plate of each cell line was fixed in situ with trichloroacetic acid (TCA). The fixed slides were used to determine the cell population for each cell line at the time of drug addition (Tz). Each compound to be tested was solubilized in DMSO and the desired concentration was then added to the medium and diluted serially 1:10 to provide a total of five or ten drug concentrations plus control (in a final volume of 200 μL). The starting dose before any dilution was 100 uM for all compounds.
(§2) Following drug addition, each culture was incubated for forty-eight hours. The assay was terminated with the addition of cold TCA. The supernatant was discarded, and the plates were washed with tap water and air dried. Sulforhodamine B (SRB) solution was then added to each well. After staining, the bound stain was solubilized and the absorbance was read on an automated plate reader at a wavelength of 515 nm.
(§3) Using the absorbance measurements [time zero, (Tz), control growth, (C), and test growth in the presence of drug at the ten concentration levels (Ti)], the percentage growth was calculated at each of the drug concentrations levels. Percentage growth inhibition was calculated as:
(§4) [(Ti−Tz)/(C−Tz)]×100 for concentrations for which Ti>/=Tz […]
(§5) Three dose response parameters were calculated for each experimental agent. […] The drug concentration resulting in total growth inhibition (TGI) was calculated from Ti=Tz. […]
(§6) Values were calculated for each of these three parameters when the level of activity was reached; however, if the effect was not reached or was exceeded, the value for that parameter was expressed as greater or less than the maximum or minimum concentration tested. […]

SF295 (CNS) = assay: SRB assay, SF295; type: cell-based, human
Procedure: as §1, §2, §3, §4, §5, §6

UAC032 (Melanoma) = assay: SRB assay, UAC032; type: cell-based, human; conditions: 48 h
Procedure: as §1, §2, §3, §4, §5, §6

[3] = system: membrane androgen receptor; assay: Membrane androgen receptor competition assay, LNCaP cells; type: binding; conditions: 40 μM compound 30 minutes before 40 μM testosterone-HSA-FITC, FIG. 3A
Procedure: After a 24 hour serum starvation period, cells were incubated with 40 μM testosterone-HSA-FITC for 1 hour at room temperature. […] Human serum albumin-FITC was used as a control for background staining. After permeabilization with ice-cold acetone for 4 minutes at room temperature, cell nuclei were stained with DAPI. Coverslips were mounted on slides by using the Slow Fade/Antifade Reagent (Molecular Probes) and studied under a LEICA DMLB microscope, equipped with the appropriate fluorescence filters and a Leica DC 300F camera. Specimens were analyzed using the Leica FW4000 computer program.
To determine the capacity of a given compound to preclude binding of fluorescent testosterone-HSA conjugates (TAC) to the membrane androgen receptor, starved LNCaP or DU145 cells on coverslips prepared as described above were pre-treated with 40 μM of the indicated compound for 30 minutes prior to the addition of testosterone-HSA-FITC. At the end of the incubation period, cells were washed twice with PBS and 40 μM of testosterone-HSA-FITC was added. Specimens were prepared and analyzed as described above.

Q: `C[C@]12CCC(=NOC3CCNC3)CC1CCC1C2CC[C@]2(C)C(=O)CCC12` (stereo partly drawn) [Compound 56, (10S,13S)-10,13-dimethyl-3-(pyrrolidin-3-yloxyimino)tetradecahydro-1H-cyclopenta[a]phenanthren-17(2H)-one] was tested. Which “membrane fluorescence of TAC-FITC after pre-treatment (binding to mAR precluded)” value [1] did it give?
A: devoid of membrane fluorescence

Q: Which results are given for `C[C@]12CCC(=NOCCN)C=C1CCC1C2CC[C@]2(C)C(=O)CCC12` (stereo partly drawn) [Compound 12, (10R,13S)-3-(2-aminoethoxyimino)-10,13-dimethyl-2,3,7,8,9,10,11,12,13,14,15,16-dodecahydro-1H-cyclopenta[a]phenanthren-17(6H)-one]?
A: enhancement of the cytotoxic action of paclitaxel ([2]; 1 or 2 uM compound 12 added to paclitaxel 20 nM): clearly enhances the cytotoxic action; CC50 (T470 (Breast); Homo sapiens, read-out: LC50): 69.6 µM; GI50 (T470 (Breast); Homo sapiens, T470, SRB): 5.98 µM; TGI (T470 (Breast); T470, SRB): 26.42 µM; CC50 (SF295 (CNS); Homo sapiens, SF-295, 48 h, read-out: LC50): 9.04 µM; GI50 (SF295 (CNS); Homo sapiens, SF-295, SF295, SRB, 48 h): 3.26 µM; TGI (SF295 (CNS); SF295, SRB, 48 h): 6.15 µM; membrane fluorescence of TAC-FITC after pre-treatment (binding to mAR precluded) [1]: devoid of membrane fluorescence; CC50 (UAC032 (Melanoma); Homo sapiens, read-out: LC50): 49.5 µM; GI50 (UAC032 (Melanoma); Homo sapiens, UAC032, SRB): 4.57 µM; TGI (UAC032 (Melanoma); UAC032, SRB): 7.64 µM; membrane fluorescence of TAC-FITC after pre-treatment (binding to mAR precluded) [3]: devoid of membrane fluorescence

Q: With `CC(=O)O[C@H]1C(=O)[C@@]2(C)[C@H]([C@H](OC(=O)c3ccccc3)[C@]3(O)C[C@H](OC(=O)[C@H](O)[C@@H](NC(=O)c4ccccc4)c4ccccc4)C(C)=C1C3(C)C)[C@]1(OC(C)=O)CO[C@@H]1C[C@@H]2O` [Paclitaxel, reference compound] as the compound, how does the cytotoxic activity alone ([2]; paclitaxel 20 nM) read?
A: limited cytotoxic activity
